Each structure is given as a SMILES string. Positions count from the first letter of the chain named. Read-outs that look alike come from different tables or passages of the source.

Data on 39 molecules can be found in patent US8362000B2, “Azetidinyl diamides as monoacylglycerol lipase inhibitors” (Janssen Pharmaceutica NV, priority 2009, dated 2013).

The target in assay [1] is T1, purified wild type MGL (wt-MGLL 6H-11-313) (Homo sapiens, UniProt Q99685).
T1 sequence (Q99685 1-303): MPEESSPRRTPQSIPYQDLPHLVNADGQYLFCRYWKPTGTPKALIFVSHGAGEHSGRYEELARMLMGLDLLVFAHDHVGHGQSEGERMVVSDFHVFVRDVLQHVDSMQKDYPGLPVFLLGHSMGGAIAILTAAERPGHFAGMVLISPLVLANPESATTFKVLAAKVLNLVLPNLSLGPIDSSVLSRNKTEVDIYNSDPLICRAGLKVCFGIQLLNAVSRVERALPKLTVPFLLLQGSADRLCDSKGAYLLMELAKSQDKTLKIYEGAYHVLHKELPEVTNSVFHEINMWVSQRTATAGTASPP

A further assay addresses T2, mutant MGL (Homo sapiens, UniProt Q99685, L169S/L176S).
T2 sequence (Q99685 1-303 L169S/L176S): T1 sequence (Q99685 1-303) with L169S, L176S
Description: MGL ThermoFluor assay - mutant. The class given is binding.

Where [2] appears, read: ThermoFluor concentration-response, read-out: MGL mutant ThermoFluor Kd.
The mark [3] stands for this setting: ThermoFluor thermal stability binding assay, read-out: MGL mutant ThermoFluor Kd.
Where [4] appears, read: ThermoFluor, compound concentration measured by qNMR, read-out: MGL mutant ThermoFluor qKd (μM) (using qNMR conc.).
[5] abbreviates: ThermoFluor, compound concentration measured by qNMR, read-out: MGL mutant ThermoFluor qKd (using qNMR conc.).
Where [6] appears, read: compound concentration measured by qNMR, read-out: MGL mutant ThermoFluor qKd (using qNMR conc.).

The molecule `O=C(c1cc(F)cc(-c2ccccc2)c1)N1CC(N2CCN(C(=O)c3cscn3)CC2)C1` [Cpd 1273] returned an IC50 in assay [1] of 1610 nM. Besides, the Kd on mutant MGL (setting [2]) is 1.83 µM.

In turn, `O=C(c1ccccc1)N1CCN(C2CN(C(=O)c3ccc(-c4cccc(C(F)(F)F)c4)cc3Cl)C2)CC1` [Cpd 252, 1-(1-{[3-Chloro-3′-(trifluoromethyl)biphenyl-4-yl]carbonyl}azetidin-3-yl)-4-(phenylcarbonyl)piperazine] gave a half-inhibitory concentration (IC50) in assay [1] of 80.8 nM. For the same molecule, the Kd on mutant MGL (setting [3]) turned out to be 0.05 µM.

In turn, `O=C(c1ccccc1)N1CCN(C2CN(C(=O)c3ccc4nc(-c5ccccc5)sc4c3)C2)CC1` [Cpd 592, 2-Phenyl-6-({3-[4-(phenylcarbonyl)piperazin-1-yl]azetidin-1-yl}carbonyl)-1,3-benzothiazole] gave an IC50 in assay [1] of 253 nM. Further, the Kd on mutant MGL (setting [2]) came to 0.5 µM.

`O=C(c1ccc2c(ccn2-c2ccc(F)cc2)c1)N1CC(N2CCN(C(=O)c3ccc(Cl)o3)CC2)C1` [Cpd 1425] registered an IC50 in assay [1] of 9 nM. At mutant MGL (setting [4]), the Kd was found to be 0.019 µM.

For the molecule `Cc1c(C(=O)N2CC(N3CCN(C(=O)c4ccc[nH]4)CC3)C2)nc2ccc(Br)cn12` [Cpd 825], the concentration for half-maximal inhibition (IC50) in assay [1] stood at 3150 nM. Moreover, the Kd on mutant MGL (setting [5]) was determined as 4.86 µM.

In assay [1], `O=C(c1ccc(Sc2cccc(C(F)(F)F)c2)cc1)N1CC(N2CCN(C(=O)C(F)(F)F)CC2)C1` [Cpd 790] returned a concentration for half-maximal inhibition (IC50) of 1420 nM. Also, the Kd at mutant MGL (setting [6]) amounted to 2.49 µM.

With `O=C(c1cc[nH]c1)N1CCN(C2CN(C(=O)c3ccc(-c4cccc(C(F)(F)F)c4)cc3)C2)CC1` [Cpd 1324], in assay [1], the IC50 is under 5 nM. In addition, at mutant MGL (setting [3]), the Kd worked out at 0.016 µM.

On to `O=C(c1ccc(-n2cc(-c3cc(F)cc(F)c3)cn2)cc1)N1CC(N2CCN(C(=O)c3nccs3)CC2)C1` [Cpd 1123], for which, in assay [1], the IC50 was determined as 19 nM. For the same molecule, at mutant MGL (setting [5]), the Kd was 1.35 µM.

For the molecule `Cc1c(C(=O)N2CCN(C3CN(C(=O)c4nccs4)C3)CC2)sc2cc(C(F)(F)F)ccc12` [Cpd 704], half-maximal inhibition in assay [1] (IC50) required 96 nM. Besides, the Kd at mutant MGL (setting [2]) is 0.017 µM.

Molecule `O=C(c1ccc2[nH]c(C3CCCCC3)nc2c1)N1CCN(C2CN(C(=O)c3cscn3)C2)CC1` [Cpd 853] had an IC50 in assay [1] of 8340 nM. Also, the Kd at mutant MGL (setting [2]) came out at 1 µM.

As to `O=C(c1ccc2c(ccn2-c2cccnc2)c1)N1CC(N2CCN(C(=O)c3ccc[nH]3)CC2)C1` [Cpd 1247, 1-Pyridin-3-yl-5-({3-[4-(1H-pyrrol-2-ylcarbonyl)piperazin-1-yl]azetidin-1-yl}carbonyl)-1H-indole], the 50% inhibitory concentration (IC50) in assay [1] came to 539 nM. The Kd on mutant MGL (setting [5]) was 0.65 µM.

Take `O=C(c1ccccc1)N1CCN(C2CN(C(=O)c3ccc4c(ccn4-c4ccncc4)c3)C2)CC1` [Cpd 603, 5-({3-[4-(Phenylcarbonyl)piperazin-1-yl]azetidin-1-yl}carbonyl)-1-pyridin-4-yl-1H-indole]: the half-inhibitory concentration (IC50) in assay [1] is 1720 nM. In addition, the Kd on mutant MGL (setting [5]) came out at 0.448 µM.

`Cc1c(C(=O)N2CC(N3CCN(C(=O)c4cscn4)CC3)C2)sc2nc(C(F)(F)F)ccc12` [Cpd 749] registered an IC50 in assay [1] of 387 nM. Also, the Kd on mutant MGL (setting [4]) worked out at 0.036 µM.

In turn, `Cc1c(C(=O)N2CCN(C3CN(C(=O)c4ccc[nH]4)C3)CC2)sc2cc(C(F)(F)F)ccc12` [Cpd 731] registered an IC50 in assay [1] of 238 nM. For the same molecule, the Kd at mutant MGL (setting [2]) came to 0.016 µM.

`NC(=O)c1cc(-n2ccc3cc(C(=O)N4CC(N5CCN(C(=O)c6nccs6)CC5)C4)ccc32)ccc1F` [Cpd 1418, 2-fluoro-5-[5-({3-[4-(1,3-thiazol-2-ylcarbonyl)piperazin-1-yl]azetidin-1-yl}carbonyl)-1H-indol-1-yl]benzamide] came in with an IC50 in assay [1] of 16 nM. For the same molecule, on mutant MGL (setting [2]), the Kd was determined as 0.054 µM.

Turning to `O=C(c1nccs1)N1CCN(C2CN(C(=O)c3sc4cc(F)ccc4c3C3CC3)C2)CC1` [Cpd 714, 1-{1-[(3-Cyclopropyl-6-fluoro-1-benzothiophen-2-yl)carbonyl]azetidin-3-yl}-4-(1,3-thiazol-2-ylcarbonyl)piperazine], half-maximal inhibition in assay [1] (IC50) required 135 nM. Also, the Kd at mutant MGL (setting [2]) worked out at 0.005 µM.

`O=C(c1cc2cc(Cl)ccc2o1)N1CCN(C2CN(C(=O)c3nccs3)C2)CC1` [Cpd 785] had a half-maximal inhibitory concentration (IC50) in assay [1] of 1190 nM. The Kd on mutant MGL (setting [2]) was 0.5 µM.

For the molecule `Cc1cc(-n2ccc3cc(C(=O)N4CC(N5CCN(C(=O)c6ccccc6)CC5)C4)ccc32)ccc1C#N` [Cpd 566, 2-Methyl-4-[5-({3-[4-(phenylcarbonyl)piperazin-1-yl]azetidin-1-yl}carbonyl)-1H-indol-1-yl]benzonitrile], inhibition in assay [1] was half-maximal at 14 nM (IC50). In addition, at mutant MGL (setting [4]), the Kd was found to be 0.031 µM.

In the case of `O=C(c1cc(Br)cs1)N1CC(N2CCN(C(=O)c3nccs3)CC2)C1` [Cpd 806], half-maximal inhibition in assay [1] (IC50) required 2050 nM. Besides, the Kd at mutant MGL (setting [4]) is 0.989 µM.

Turning to `O=C(c1nn(-c2ccc(Cl)cc2Cl)c2c1CCCC2)N1CC(N2CCN(C(=O)C(F)(F)F)CC2)C1` [Cpd 1311], inhibition in assay [1] was half-maximal at 14600 nM (IC50). For the same molecule, the Kd at mutant MGL (setting [6]) came to 67.5 µM.

As for `O=C(c1ccc(CS(=O)(=O)c2cccc(C(F)(F)F)c2)cc1)N1CC(N2CCN(C(=O)c3nccs3)CC2)C1` [Cpd 976, 1-(1,3-Thiazol-2-ylcarbonyl)-4-(1-{[4-({[3-(trifluoromethyl)phenyl]sulfonyl}methyl)phenyl]carbonyl}azetidin-3-yl)piperazine], in assay [1], the 50% inhibitory concentration (IC50) came out at 574 nM. At mutant MGL (setting [2]), the Kd was determined as 1.84 µM.

As for `O=C(c1nc2cc(F)ccc2[nH]1)N1CC(N2CCN(C(=O)c3nccs3)CC2)C1` [Cpd 1443], the IC50 in assay [1] was over 16700 nM. For the same molecule, the Kd on mutant MGL (setting [3]) is over 31.2 µM.

Consider `O=C(c1cn[nH]c1)N1CCN(C2CN(C(=O)c3ccc(-c4ccccc4)cc3)C2)CC1` [Cpd 1310], for which the IC50 in assay [1] was 11600 nM. Besides, the Kd on mutant MGL (setting [3]) was found to be 8.35 µM.

Regarding `O=C(c1ccccc1)N1CCN(C2CN(C(=O)c3ccc4c(ccn4-c4ccc(Cl)c(F)c4)c3)C2)CC1` [Cpd 568], the IC50 in assay [1] was found to be 72 nM. Moreover, the Kd at mutant MGL (setting [4]) turned out to be 0.099 µM.

Turning to `O=C(c1nccs1)N1CCN(C2CN(C(=O)c3cn(-c4cccc(F)c4)c4ccccc34)C2)CC1` [Cpd 1226], the 50% inhibitory concentration (IC50) in assay [1] turned out to be 282 nM. In addition, the Kd at mutant MGL (setting [4]) turned out to be 0.193 µM.

Turning to `Cc1nc2cc(C(=O)N3CCN(C4CN(C(=O)c5nccs5)C4)CC3)ccc2n1C1CCCCC1` [Cpd 793], in assay [1], the concentration for half-maximal inhibition (IC50) turned out to be 1460 nM. Further, on mutant MGL (setting [2]), the Kd came out at 0.198 µM.

For the molecule `CC(=O)NCCOc1ccc(C(=O)N2CC(N3CCN(C(=O)c4nccs4)CC3)C2)cc1` [Cpd 836], 4760 nM corresponded to half-maximal inhibition in assay [1] (IC50). The Kd at mutant MGL (setting [5]) turned out to be 2.25 µM.

With `O=C(c1ccc2c(ccn2-c2ccccn2)c1)N1CC(N2CCN(C(=O)c3ccc[nH]3)CC2)C1` [Cpd 1189, 1-Pyridin-2-yl-5-({3-[4-(1H-pyrrol-2-ylcarbonyl)piperazin-1-yl]azetidin-1-yl}carbonyl)-1H-indole], the midpoint of inhibition in assay [1], the IC50, lay at 97 nM. Also, the Kd at mutant MGL (setting [5]) is 0.153 µM.

On to `Cc1c(Cc2ccc(C(F)(F)F)cc2)cccc1C(=O)N1CC(N2CCN(C(=O)c3ccc[nH]3)CC2)C1` [Cpd 1013], for which 161 nM corresponded to half-maximal inhibition in assay [1] (IC50). Moreover, at mutant MGL (setting [2]), the Kd was determined as 0.76 µM.

In turn, `O=C(c1ccccc1)N1CCN(C2CN(C(=O)c3cc4cc(Cl)ccc4o3)C2)CC1` [Cpd 1491] returned an IC50 in assay [1] of over 16700 nM. In addition, the Kd at mutant MGL (setting [3]) was 12.5 µM.

With `O=C(c1nccs1)N1CCN(C2CN(C(=O)c3ncoc3-c3ccc(Cl)cc3)C2)CC1` [Cpd 1473], the 50% inhibitory concentration (IC50) in assay [1] was over 16700 nM. In addition, the Kd at mutant MGL (setting [3]) is 6.67 µM.

The molecule `O=C(c1ccc(-n2cnc3ccccc32)cc1)N1CCN(C2CN(C(=O)c3ccccc3)C2)CC1` [Cpd 610] showed an IC50 in assay [1] of 10300 nM. Also, the Kd on mutant MGL (setting [2]) is 1.29 µM.

Molecule `Cc1c(C(=O)N2CC(N3CCN(C(=O)c4cscn4)CC3)C2)[nH]c2ccc(Cl)cc12` [Cpd 755] displayed a half-maximal inhibitory concentration (IC50) in assay [1] of 468 nM. The Kd on mutant MGL (setting [2]) is 0.328 µM.

Take `O=C(c1ccc(-c2cccc(C(F)(F)F)c2)cc1)N1CC(N2CCN(C(=O)c3ccc(Br)o3)CC2)C1` [Cpd 1335]: in assay [1], the IC50 is under 5 nM. The Kd on mutant MGL (setting [4]) was determined as 0.011 µM.

In turn, `O=C(c1ccc2[nH]c(-c3ccccc3)nc2c1)N1CCN(C2CN(C(=O)c3nccs3)C2)CC1` [Cpd 1271] had a half-inhibitory concentration (IC50) in assay [1] of 1570 nM. Besides, the Kd on mutant MGL (setting [2]) was 1 µM.

The molecule `O=C(c1ccc2c(ccn2Cc2ccncc2)c1)N1CC(N2CCN(C(=O)c3nccs3)CC2)C1` [Cpd 1046] gave a 50% inhibitory concentration (IC50) in assay [1] of 288 nM. Also, the Kd at mutant MGL (setting [6]) is 0.064 µM.

In assay [1], `O=C(c1ccc2c(N3CCSCC3)ncnc2c1)N1CC(N2CCN(C(=O)c3nccs3)CC2)C1` [Cpd 951, 7-({3-[4-(1,3-Thiazol-2-ylcarbonyl)piperazin-1-yl]azetidin-1-yl}carbonyl)-4-thiomorpholin-4-ylquinazoline] gave an IC50 of 540 nM. In addition, the Kd on mutant MGL (setting [6]) amounted to 0.117 µM.

For `O=C(COc1ccc(C(=O)N2CC(N3CCN(C(=O)c4nccs4)CC3)C2)cc1)Nc1cccc(C(F)(F)F)c1` [Cpd 1041], in assay [1], inhibition was half-maximal at 19 nM (IC50). In addition, the Kd on mutant MGL (setting [5]) turned out to be 0.397 µM.

`Cc1cc(C(=O)N2CC(N3CCN(C(=O)c4nccs4)CC3)C2)cc2ccn(-c3ccc(F)cc3)c12` [Cpd 1355, 1-(4-Fluorophenyl)-7-methyl-5-({3-[4-(1,3-thiazol-2-ylcarbonyl)piperazin-1-yl]azetidin-1-yl}carbonyl)-1H-indole] showed an IC50 in assay [1] of under 5 nM. On mutant MGL (setting [6]), the Kd is 0.002 µM.
